Assay results as given in ChEMBL document CHEMBL1131601, “4-Amino-2-[4-[1-(benzyloxycarbonyl)-2(S)- [[(1,1-dimethylethyl)amino]carbonyl]-piperazinyl]-6, 7-dimethoxyquinazoline (L-765,314): a potent and selective alpha1b adrenergic receptor antagonist” (J Med Chem, 1998).

Assays:
[1] = target: T1, Alpha-1A adrenergic receptor (Rattus norvegicus, UniProt P43140); assay: Compound was evaluated for its ability to displace [125I]HEAT binding from rat Alpha-1A adrenergic receptor
T1 sequence (P43140 whole entry): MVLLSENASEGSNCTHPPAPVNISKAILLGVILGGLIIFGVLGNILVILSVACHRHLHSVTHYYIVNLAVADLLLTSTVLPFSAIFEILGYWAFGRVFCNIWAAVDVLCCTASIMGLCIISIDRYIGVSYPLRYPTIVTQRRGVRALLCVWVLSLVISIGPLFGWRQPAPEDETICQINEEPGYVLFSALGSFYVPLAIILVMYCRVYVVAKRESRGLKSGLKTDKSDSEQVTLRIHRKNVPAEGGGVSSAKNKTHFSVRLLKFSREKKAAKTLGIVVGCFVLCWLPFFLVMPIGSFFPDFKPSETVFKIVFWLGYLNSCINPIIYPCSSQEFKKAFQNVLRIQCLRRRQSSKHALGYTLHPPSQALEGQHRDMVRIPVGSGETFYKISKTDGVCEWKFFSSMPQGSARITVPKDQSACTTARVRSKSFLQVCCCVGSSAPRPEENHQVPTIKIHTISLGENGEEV

[2] = target: T2, Alpha-1B adrenergic receptor (Rattus norvegicus, UniProt P15823); assay: Compound was tested for the tissue binding affinity using [3H]- Prazosin as radioligand to the rat spleen Alpha-1B adrenergic receptor subtype.; assay type: tissue-based
T2 sequence (P15823 whole entry): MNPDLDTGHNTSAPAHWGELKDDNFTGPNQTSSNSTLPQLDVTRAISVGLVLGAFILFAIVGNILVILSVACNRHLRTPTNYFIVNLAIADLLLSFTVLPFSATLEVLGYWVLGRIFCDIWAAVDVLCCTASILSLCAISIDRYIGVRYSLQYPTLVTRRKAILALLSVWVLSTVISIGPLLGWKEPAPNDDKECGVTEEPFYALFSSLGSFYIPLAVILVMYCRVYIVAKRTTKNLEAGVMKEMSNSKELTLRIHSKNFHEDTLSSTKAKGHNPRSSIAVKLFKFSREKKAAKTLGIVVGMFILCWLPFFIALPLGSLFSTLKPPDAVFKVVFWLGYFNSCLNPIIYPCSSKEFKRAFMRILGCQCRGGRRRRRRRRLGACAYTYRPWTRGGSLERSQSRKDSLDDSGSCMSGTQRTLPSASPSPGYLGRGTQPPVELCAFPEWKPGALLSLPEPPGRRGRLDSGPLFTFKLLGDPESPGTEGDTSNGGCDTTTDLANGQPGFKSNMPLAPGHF

[3] = target: T3, Alpha-1B adrenergic receptor (Homo sapiens, UniProt P35368); assay: Compound was tested for the tissue binding affinity using [125I]- HEAT as radioligand to the human aorta Alpha-1B adrenergic receptor subtype.; assay type: tissue-based
T3 sequence (P35368 whole entry): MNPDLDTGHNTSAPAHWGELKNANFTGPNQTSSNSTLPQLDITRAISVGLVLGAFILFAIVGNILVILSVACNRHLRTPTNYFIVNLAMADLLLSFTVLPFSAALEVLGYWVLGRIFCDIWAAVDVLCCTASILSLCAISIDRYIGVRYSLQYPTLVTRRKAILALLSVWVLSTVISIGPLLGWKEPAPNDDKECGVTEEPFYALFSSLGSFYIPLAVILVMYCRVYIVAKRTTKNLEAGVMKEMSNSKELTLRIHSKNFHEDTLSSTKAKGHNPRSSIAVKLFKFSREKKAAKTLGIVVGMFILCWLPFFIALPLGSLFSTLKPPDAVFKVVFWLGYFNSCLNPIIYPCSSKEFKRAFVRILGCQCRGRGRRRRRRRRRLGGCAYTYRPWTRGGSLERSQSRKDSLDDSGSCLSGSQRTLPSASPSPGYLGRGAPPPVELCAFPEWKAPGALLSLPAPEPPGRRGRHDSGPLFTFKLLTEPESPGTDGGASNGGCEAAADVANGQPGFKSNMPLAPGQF

[4] = target: T4, Alpha-1A adrenergic receptor (Homo sapiens, UniProt P35348); assay: Compound was tested for binding affinity utilizing cloned receptor binding assays by using [125 I]HEAT as radioligand to the human Alpha-1A adrenergic receptor
T4 sequence (P35348 whole entry): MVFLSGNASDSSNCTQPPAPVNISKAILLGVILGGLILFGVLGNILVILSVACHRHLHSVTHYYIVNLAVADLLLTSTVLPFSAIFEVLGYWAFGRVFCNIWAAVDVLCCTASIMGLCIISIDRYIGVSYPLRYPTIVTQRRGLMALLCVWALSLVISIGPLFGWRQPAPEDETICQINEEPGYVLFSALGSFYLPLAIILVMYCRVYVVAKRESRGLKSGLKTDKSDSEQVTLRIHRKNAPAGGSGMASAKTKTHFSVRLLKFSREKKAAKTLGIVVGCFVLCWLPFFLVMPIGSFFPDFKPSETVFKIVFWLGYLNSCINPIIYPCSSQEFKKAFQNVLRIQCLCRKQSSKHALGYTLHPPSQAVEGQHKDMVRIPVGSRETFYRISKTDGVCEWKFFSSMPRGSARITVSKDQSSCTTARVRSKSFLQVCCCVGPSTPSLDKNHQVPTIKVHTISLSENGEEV

[5] = target: T3, Alpha-1B adrenergic receptor; assay: Compound was tested for binding affinity utilizing cloned receptor binding assays by using [125 I]HEAT as radioligand to the human Alpha-1B adrenergic receptor
[6] = target: T2, Alpha-1B adrenergic receptor; assay: Compound was tested for the tissue binding affinity using [3H]- Prazosin as radioligand to the rat liver Alpha-1B adrenergic receptor
[7] = target: T4, Alpha-1A adrenergic receptor; assay: Compound was tested for the tissue binding affinity using [3H]- Prazosin as radioligand to the human prostate Alpha-1A adrenergic receptor subtype.
[8] = target: T2, Alpha-1B adrenergic receptor; assay: Compound was evaluated for its ability to displace [125I]HEAT binding from rat Alpha-1B adrenergic receptor
[9] = target: T5, Alpha-1D adrenergic receptor (Homo sapiens, UniProt P25100); assay: Compound was tested for binding affinity utilizing cloned receptor binding assays by using [125 I]HEAT as radioligand to the human Alpha-1D adrenergic receptor
T5 sequence (P25100 whole entry): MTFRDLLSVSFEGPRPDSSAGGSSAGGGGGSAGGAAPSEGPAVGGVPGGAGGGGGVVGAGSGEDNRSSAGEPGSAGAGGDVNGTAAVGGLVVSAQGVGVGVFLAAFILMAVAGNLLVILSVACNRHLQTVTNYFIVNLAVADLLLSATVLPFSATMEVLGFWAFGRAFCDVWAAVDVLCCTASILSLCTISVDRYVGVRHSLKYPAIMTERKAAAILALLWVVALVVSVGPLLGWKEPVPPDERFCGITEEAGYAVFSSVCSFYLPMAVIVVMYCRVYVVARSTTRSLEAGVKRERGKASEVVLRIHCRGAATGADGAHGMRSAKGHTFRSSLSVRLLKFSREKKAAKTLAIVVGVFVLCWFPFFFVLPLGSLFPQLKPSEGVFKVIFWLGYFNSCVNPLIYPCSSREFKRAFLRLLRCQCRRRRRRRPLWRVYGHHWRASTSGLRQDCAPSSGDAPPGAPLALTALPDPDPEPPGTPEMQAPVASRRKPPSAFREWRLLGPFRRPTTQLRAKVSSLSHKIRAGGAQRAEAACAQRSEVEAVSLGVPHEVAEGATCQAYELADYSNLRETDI

[10] = target: T6, Alpha-1D adrenergic receptor (Rattus norvegicus, UniProt P23944); assay: Compound was evaluated for its ability to displace [125I]HEAT binding from rat Alpha-1D adrenergic receptor
T6 sequence (P23944 whole entry): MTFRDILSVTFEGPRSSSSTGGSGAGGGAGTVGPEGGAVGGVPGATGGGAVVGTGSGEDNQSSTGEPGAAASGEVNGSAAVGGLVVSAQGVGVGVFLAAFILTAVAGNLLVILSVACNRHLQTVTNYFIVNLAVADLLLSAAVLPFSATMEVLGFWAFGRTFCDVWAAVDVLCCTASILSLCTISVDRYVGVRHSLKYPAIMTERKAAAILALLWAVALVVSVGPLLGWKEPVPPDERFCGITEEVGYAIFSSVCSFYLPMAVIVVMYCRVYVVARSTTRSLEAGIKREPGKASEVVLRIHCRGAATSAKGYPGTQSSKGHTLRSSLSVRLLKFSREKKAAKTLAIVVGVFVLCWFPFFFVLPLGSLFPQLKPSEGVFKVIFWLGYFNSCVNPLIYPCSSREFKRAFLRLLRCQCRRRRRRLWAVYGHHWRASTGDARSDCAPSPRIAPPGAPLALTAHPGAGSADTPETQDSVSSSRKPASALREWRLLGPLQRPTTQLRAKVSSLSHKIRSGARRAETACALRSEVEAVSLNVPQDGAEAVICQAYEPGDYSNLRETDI

[11] = target: T1, Alpha-1A adrenergic receptor; assay: Compound was tested for the tissue binding affinity using [3H]- Prazosin as radioligand to the rat prostate Alpha-1A adrenergic receptor subtype
[12] = target: T2, Alpha-1B adrenergic receptor; assay: Compound was tested for the tissue binding affinity using [3H]- Prazosin as radioligand to the rat spleen Alpha-1B adrenergic receptor subtype; assay type: tissue-based
[13] = target: T4, Alpha-1A adrenergic receptor; assay: Compound was tested for the tissue binding affinity using [3H]- Prazosin as radioligand to the human prostate Alpha-1A adrenergic receptor subtype
[14] = target: T3, Alpha-1B adrenergic receptor; assay: Compound was tested for its binding affinity utilizing cloned receptor binding assays by using [125 I]HEAT as radioligand to the human Alpha-1B adrenergic receptor (n >= 2)
[15] = target: T5, Alpha-1D adrenergic receptor; assay: Compound was tested for its binding affinity utilizing cloned receptor binding assays by using [125 I]HEAT as radioligand to the human Alpha-1D adrenergic receptor
[16] = target: T4, Alpha-1A adrenergic receptor; assay: Compound was tested for its binding affinity utilizing cloned receptor binding assays by using [125 I]HEAT as radioligand to the human Alpha-1A adrenergic receptor
[17] = target: T3, Alpha-1B adrenergic receptor; assay: Compound was tested for the tissue binding affinity using [125I]- HEAT as radioligand to the human aorta Alpha-1B adrenergic receptor; assay type: tissue-based
[18] = target: T3, Alpha-1B adrenergic receptor; assay: Compound was tested for its binding affinity utilizing cloned receptor binding assays by using [125 I]HEAT as radioligand to the human Alpha-1B adrenergic receptor
[19] = target: T1, Alpha-1A adrenergic receptor; assay: Compound was tested for the tissue binding affinity using [3H]- Prazosin as radioligand to the rat prostate Alpha-1A adrenergic receptor subtype.

SMILES | Ki [1] [nM] | IC50 [2] [nM] | IC50 [3] [nM] | Ki [4] [nM] | Ki [5] [nM] | IC50 [6] [nM] | IC50 [7] [nM] | Ki [8] [nM] | Ki [9] [nM] | Ki [10] [nM] | IC50 [11] [nM] | IC50 [12] [nM] | IC50 [13] [nM] | Ki [14] [nM] | Ki [15] [nM] | Ki [16] [nM] | IC50 [17] [nM] | Ki [18] [nM] | IC50 [19] [nM]
COc1cc2nc(N3CCN[C@H](C(=O)NC(C)(C)C)C3)nc(N)c2cc1OC | 510 | 1500 | 31 | 830 | 25 | 2700 | 1700 | 1500 | 250 | 630 | – | – | – | – | – | – | – | – | –
COc1cc2nc(N3CCN(C(=O)c4ccco4)[C@H](C(=O)NC(C)(C)C)C3)nc(N)c2cc1OC | 580 | – | – | 1700 | 3.5 | 15 | – | 7 | 73 | 78 | 2000 | 14 | 1900 | – | – | – | – | – | –
COc1ccccc1N1CCN(CCN2C(=O)CC3(CCCC3)CC2=O)CC1 [BMY-7378] | – | – | – | – | – | – | – | 328 | – | – | – | – | – | 191 | – | – | – | – | –
COc1cc2nc(N3CCN(C(=O)OCc4ccccc4)[C@H](C(=O)NC(C)(C)C)C3)nc(N)c2cc1OC [L-765314] | 500 | 9.3 | 8.8 | – | – | 9.3 | – | 5.4 | – | 50 | – | – | 590 | – | 34 | 420 | 5800 | 2 | 340
COc1cc2nc(N3CCN(C(=O)C4CCCO4)CC3)nc(N)c2cc1OC (configuration not stated) [TERAZOSIN] | – | – | – | – | – | – | – | 1.9 | – | 3.4 | – | – | – | – | 2 | – | – | – | –
